# Test results: PMC6222706, “Evaluation of the Antioxidant and Neuroprotectant Activities of New Asymmetrical 1,3-Diketones” (Molecules : A Journal of Synthetic Chemistry and Natural …, 2018)
# What was measured:
# [1] = FRAP (Ferric Reducing Antioxidant Power) assay; assay type: biochemical; conditions: for FRAP-TEAC100: Trolox Equivalent Antioxidant Capacity vs 100 µM solution of the substance, from FRAP assay; for FRAP Assay (%) at 100 µM / FRAP Assay (%) at 200 µM: 30 min, 593 nm
# Procedure: The assay was carried out according to the method of Benzie et al. with slight modifications, in a 96-well microplate. FRAP reagent was prepared by mixing 10 mL of 300 mM acetate buffer with 1 mL of 10 mM 2,4,6-tripyridyl-S-triazine (TPTZ) in HCl 40 mM and 1mL of FeCl3·6H2O 20 mM. Firstly, 190 µL of the FRAP reagent were added to all wells of the 96-well plate, followed by the addition to the well of 10 µL of the test compounds dissolved in Ethanol to reach the final concentrations assayed (0, 5, 10, 20, 50, 100, 150, 200 µM). After 30 min incubation in the dark, the absorbance was read at 593 nm. Trolox was used as assay control. Three different assays were carried out by quadruplicate for each compound.
# SH-SY5Y cells [2] = test: Intracellular ROS levels (DCFH2-DA) in SH-SY5Y cells under H2O2; assay type: cell-based, human
# Procedure: Oxidative stress increases ROS levels, which may cause cell damage and death. Therefore, ROS production caused by H2O2 was evaluated in cells pretreated with or without derivatives 6b and 7b. In these studies, DFCH-DA method was used to measure by fluorescence the ROS intracellular levels, under two different compound treatment regimens. […] From both experiments, it could be concluded that 6b and 7b reduce intracellular ROS, and that longer treatment period seems to be needed to achieve a better ROS reduction.
# Intracellular ROS levels were determined using dichlorofluorescein diacetate (DCFH2-DA) according to Wang et al.. DCFH2-DA is cleaved by intracellular esterases and oxidized by ROS to form the fluorescent compound DCF, which measure represents the ROS level. So, 3 × 10^3 SH-SY5Y cells were seeded in 96 well plates and after 24 h, treated with the test compound for an additional 24 h. […] After the incubation period, cells were washed twice with Hanks buffer and loaded with 20 µM DCFH2-DA (in FBS-free culture medium) for 40 min in dark at 37 °C in a CO2 incubator. At the end of the dye incubation period, they were washed twice with Hanks buffer to remove the extracellular DCFH2-DA. Fluorescence was measured with a Varioskan microplate reader at 485 nm excitation and 535 nm emission wavelength. Results are expressed as the percentage of fluorescent increase compared with that of the control. All the experiments were performed at least three times by quadruplicate for each compound concentration.
# [3] = ABTS radical scavenging assay; assay type: biochemical; conditions: for IC50: 30 min incubation, EtOH, absorbance at 734 nm; for ABTS-TEAC100: Trolox Equivalent Antioxidant Capacity vs 100 µM solution of the substance, from ABTS assay
# Procedure: ABTS^+ radical was produced by reacting 2,2′-azino-bis-3-ethylbenzthiazoline-6-sulphonic acid (ABTS) 7 mM with K2S2O8 2.45 mM, both reactants dissolved in water, and at the volume ratio of 1:1. The mixture was stored in the dark at room temperature for 16 h. The ABTS^+ solution was diluted to give an absorbance of 0.750 ± 0.025 at 734 nm in EtOH. All the compounds tested were dissolved in EtOH. 150 µL of each compound solution was added to the wells of the 96-well plate, followed by the addition of 50 µL of the ABTS^+ radical solution. Final compound concentrations tested were 0, 5, 10, 20, 50, 100, 150, 200 µM. The absorbance change at 734 nm was recorded after 30 min incubation in the dark, and the percentage of radical scavenging was calculated for each concentration relative to a blank containing no scavenger. The degree of decolorization was calculated as the percentage reduction of absorbance. The ABTS^+ radical scavenging activity was calculated as follows: Percentage ABTS^+ radical scavenging activity = {1 − [As/Ac]} × 100(1) where As is the absorbance of the ABTS^+ radical solution containing samples and Ac the absorbance of the control solution without antioxidant. The percentages of ABTS^+ radical reduced were plotted against compound concentration. Trolox was used as a reference antioxidant. All the assays were carried out three times by quadruplicate for each compound.
# SH-SY5Y cells [4] = test: LDH release assay in H2O2-treated SH-SY5Y cells; assay type: cell-based, human; conditions: compound 5-50 µM for 24 h, then 200 µM H2O2 for 24 h
# Procedure: Additionally, the protection effect of 6b and 7b on cell death induced by 200 µM H2O2 was determined by measuring the lactate dehydrogenase (LDH) release in cell culture medium.
# SH-SY5Y 96-well plates at a density of 5 × 10^3 cells/well and grown in the incubator for 24 h. Cells were pretreated for 24 h with different compound concentrations (5, 10, 20, 30, 40, 50 µM) and then exposed to 200 µM H2O2 for 24 h. Then, the supernatant was used in the LDH assay and the absorbance measured at 490nm in a Varioskan microplate reader after 30 min, according to the manufacturer’s instructions (LDH Cytotoxicity Assay Kit, Pierce^TM, Thermo Fisher Scientific, Vantaa, Finland). LDH leakage was calculated as the percentage of the control group.
# [5] = Chemical stability in 10 mM PBS; assay type: physicochemical; conditions: 6b, 7b at 400 µM, curcumin at 50 µM
# Procedure: It is also important to know compound integrity at those concentrations used in biological assays, and for that, the chemical stability was determined in 10 mM PBS after 6 h, 24 h and 48 h.
# In parallel compound saturation solutions were obtained and filtered from 20 mM compound stock in DMSO. So, 10 µL of 20 mM stock solution were dispensed to 190 µL of PBS 10 mM. The solutions were mixed, shaken in a microplate shaker for two hours, and then 160 µL of each solution were filtered and transferred to a new well plate for UV absorption measure. The compound stability in PBS 10 mM was determined at 24, 48 and 72 h with solutions prepared as those for the compound calibration curve.
# [6] = 6 h compound treatment followed by 2 h 500 µM H2O2
# [7] = 24 h compound treatment prior to 400 µM H2O2 for 4 h
IC50 [3],Remaining Compound (%) 0 h [5],Remaining Compound (%) 6 h [5],Remaining Compound (%) 24 h [5],Remaining Compound (%) 48 h [5],SMILES,FRAP-TEAC100 [1],FRAP Assay (%) at 100 µM [1],FRAP Assay (%) at 200 µM [1],Intracellular ROS level (SH-SY5Y cells [2]; [6]),Intracellular ROS level (SH-SY5Y cells [2]; [7]),ABTS-TEAC100 [3],LDH leakage (SH-SY5Y cells [4])
116 ± 11 µM,100%,96.1 ± 0.5%,92.2 ± 1.6%,90.4 ± 3.0%,"O=C(/C=C(O)/C=C/c1cc(F)c(O)cc1F)C(F)(F)F [Compound 6b, (3Z,5E)-6-(2,5-difluoro-4-hydroxyphenyl)-1,1,1-trifluoro-4-hydroxyhexa-3,5-dien-2-one]",0.15,6.7%,11.3%,significant ROS level decrease,significant ROS level reduction,0.67,reduced the LDH leakage
70.9 ± 5.8 µM,100%,95.7 ± 1.0%,90.9 ± 1.2%,87.8 ± 2.3%,"O=C(/C=C(O)/C=C/c1ccc(O)c(F)c1F)C(F)(F)F [Compound 7b, (3Z,5E)-6-(2,3-Difluoro-4-hydroxyphenyl)-1,1,1-trifluoro-4-hydroxyhexa-3,5-dien-2-one]",0.16,8.8%,15.3%,significant ROS level decrease,significant ROS level reduction,0.62,reduced the LDH leakage
